Data published in US20090246265A1, “ABUSE DETERRENT TRANSDERMAL FORMULATIONS OF OPIATE AGONISTS AND AGONIST-ANTAGONISTS” (AllTranz Inc., priority 2008, published 2009).
“Also recorded” adds a separate entry of the source. Where a name gives a salt, the structure may show the parent alone.

How the values were obtained:
[1] = Solubility in the pressure sensitive adhesive matrix; format: physicochemical; conditions: Durotak Elite 87-900A PSA
Experimental: Thus, the suspension was mixed and poured to 20 mil thickness.
Thus, the suspension and 3 solutions of NTX prodrugs were mixed and poured to 20 mil thickness.
Three patch formulations for testing were prepared. The patch formulations included naltrexone-HCl, naltrexone-HCl coated with cellulose acetate phthalate and an isobutyryl ester prodrug of naltrexone. The naltrexone-HCl and cellulose acetate phthalate complex was prepared using the methods described in Example 2. The patch formulations also included buprenorphine in a concentration of 2% w/w or 20 mg of buprenorphine per […] of pressure sensitive adhesive. […] The PSA admixture was poured onto Scotch PAK 1022 Release Liner 3.0 mil 3M™, spread to an even 20 mil thickness with an 8 path wet film applicator by Gardco®. The matrices were allowed to dry at 40° C. and finally the Cotran 9715 Film 3M™ as a backing membrane was applied.

[2] = In vitro diffusion (permeation and accumulation) studies through human skin, PermeGear flow through diffusion apparatus
[3] = Release of buprenorphine and naltrexone from patch placed in methanol or ethanol; format: physicochemical; conditions: patch with 2% buprenorphine
From the text: Methanol and ethanol are two media that could potentially be used to dissolve a patch for the purpose of extracting the opiate in the patch by a potential abuse. Thus, an antagonist complex such as NTX-CAP should release in a rapid manner in order to be able to block the opiates effect if injected or ingested. FIG. 6 is a representative profile of the release characteristics of naltrexone coated with cellulose acetate phthalate in methanol and ethanol.
This ratio corresponds to the amount of naltrexone necessary to cause a narcotic blockade at the opiate receptors.

[4] = Example 7, NTX•HCl and buprenorphine base bi-layer patch
[5] = Example 7, NTX•HCl and buprenorphine base bi-layer patch, after 24 h
[6] = Example 8, NTX•HCl and buprenorphine base bi-layer patch, after 24 h
[7] = Example 8, NTX•HCl and buprenorphine bi-layer patch, n=1
[8] = Example 7, NTX-CAP and buprenorphine base bi-layer patch
[9] = Example 7, NTX•HCl and buprenorphine base bi-layer patch, 24 h
[10] = Example 8, NTX-CAP and buprenorphine base bi-layer patch
[11] = Example 8, NTX•HCl and buprenorphine base bi-layer patch, 24 h

## O=C1CC[C@@]2(O)[C@H]3Cc4ccc(O)c5c4[C@@]2(CCN3CC2CC2)[C@H]1O5 [NTX•HCl, naltrexone hydrochloride]
[1]; hydrochloride
  solubility in pressure sensitive adhesive (matrix): Neither NTX.HCl nor CAP-NTX were soluble; also recorded: not soluble
[1]; listed as naltrexone-HCl, hydrochloride
  solubility in pressure sensitive adhesive (matrix): suspensions
[2]; [4]
  Flux: 0.02 ± 0.03 nmol/cm^2/h
  Lag time: 14.6 NA* h
[2]; Example 7, NTX•HCl and buprenorphine base bi-layer patch, 24 h, listed as NTX•HCl from bi-layer, hydrochloride
  Cumulative: 0.3 ± 0.5 nmol
[2]; [5]
  Drug in skin: 0.29 ± 0.03 µmol/g
[2]; Example 8, NTX•HCl and buprenorphine base bi-layer patch, 24 h, listed as NTX•HCl from bi-layer, hydrochloride
  Cumulative: 2.3 nmol
[2]; [6]
  Drug in skin: 0.30 µmol/g
[2]; [7]
  Flux: 0.0 NA* nmol/cm^2/h
[3]; ethanol, 0 min
  Release ratio of BUP:NTX: 9.9
[3]; ethanol, 10 min
  Release ratio of BUP:NTX: 7.2
[3]; ethanol, 30 min
  Release ratio of BUP:NTX: 4.6
[3]; ethanol, 60 min
  Release ratio of BUP:NTX: 4.1
[3]; methanol, 0 min
  Release ratio of BUP:NTX: 7.8
[3]; methanol, 10 min
  Release ratio of BUP:NTX: 6.5
[3]; methanol, 30 min
  Release ratio of BUP:NTX: 6.5
[3]; methanol, 60 min
  Release ratio of BUP:NTX: 6.1

## CO[C@@]12CC[C@@]3(C[C@@H]1[C@](C)(O)C(C)(C)C)[C@H]1Cc4ccc(O)c5c4[C@@]3(CCN1CC1CC1)[C@H]2O5 [BUP from bi-layer, buprenorphine]
[1]
  solubility in pressure sensitive adhesive (matrix): freely soluble
[2]; [8]
  Flux: 0.39 ± 0.05 nmol/cm^2/h
  Lag time: 10.6 ± 0.28 h
[2]; Example 7, NTX-CAP and buprenorphine base bi-layer patch, 24 h
  Cumulative: 9.3 ± 1.2 nmol
[2]; Example 7, NTX-CAP and buprenorphine base bi-layer patch, after 24 h
  Drug in skin: 0.43 ± 0.01 µmol/g
[2]; [4]
  Flux: 0.23 ± 0.06 nmol/cm^2/h
  Lag time: 10.0 ± 2.6 h
  buprenorphine flux, times higher than naltrexone: 11.2 times
[2]; [9]
  Cumulative: 5.5 ± 0.7 nmol
[2]; [5]
  Drug in skin: 0.35 ± 0.01 µmol/g
[2]; [10]
  Cumulative: 24.6 ± 10.8 nmol
  Drug in skin: 0.50 ± 0.04 µmol/g
  Flux: 1.05 ± 0.65 nmol/cm^2/h
  Lag time: 8.2 ± 0.6 h
  total permeation: 11.65 µg
[2]; [11]
  Cumulative: 18.5 nmol
[2]; [6]
  Drug in skin: 0.37 µmol/g
[2]; [7]
  Flux: 0.6 NA* nmol/cm^2/h
  Lag time: 9.5 h

## O=C1CC[C@@]2(O)[C@H]3Cc4ccc(O)c5c4[C@@]2(CCN3CC2CC2)[C@H]1O5 [naltrexone]
[1]
  solubility in pressure sensitive adhesive (matrix): not soluble
[2]; Example 6, bi-layer patch with NTX only, 24 hours
  Cumulative: 7.3 nmol
[2]; [9]
  Cumulative: 0.3 nmol
[2]; [11]
  Cumulative: 2.3 nmol
